We go through 1 compound from US7897630B2, “5-aryl isoxazolines for controlling invertebrate pests” (E.I. du Pont de Nemours and Company, priority 2005, dated 2011).

This experiment deals with cat flea (Ctenocephalides felis Bouche). Description: Test H: control of cat flea on orally dosed CD-1 mouse. In kind it is in vivo. To be noted: oral 10 mg/kg, fleas applied 2 hours after dosing, evaluated 48 hours after flea application. On the procedure:
For evaluating control of the cat flea (Ctenocephalides felis Bouche), a CD-1® mouse (about 30 g, male, obtained from Charles River Laboratories, Wilmington, Mass.) was orally dosed with a test compound in an amount of 10 mg/kg solubilized in propylene glycol/glycerol formal (60:40). Two hours after oral administration of the test compound, approximately 8 to 16 adult fleas were applied to each mouse. The fleas were then evaluated for mortality 48 hours after flea application to the mouse.

Compound `CSc1ccc(C2=NOC(c3cc(Cl)cc(Cl)c3)(C(F)(F)F)C2)cc1Br` (racemic) [Compound 205] showed a flea mortality not below 20%.
